Patent US20220226484A1, “THERAPEUTIC PEPTIDES” (COHBAR, INC., priority 2019, published 2022)
Positions of bridges follow the written chain, without caps; N, C: chain ends. Non-standard residues stand in square brackets, D forms with d. Primed or numbered codes have the meaning given here. Chains are numbered I, II in the order given. No end group written: not given here. PEG12′ = not defined here; Nle = CCCC[C@H](N)C(=O)O

Legend:
3T3-L1 Mouse Adipocytes [1] = test: Insulin-dependent effect on free fatty acid levels in cultured mouse adipocytes; type: cell-based; details: 3 hours; for Free Fatty Acid Levels, MEAN % ISO, +Insulin: peptide 10 μM + insulin 0.25 nM, percent of isoproterenol (0.1 nM)+insulin (0.25 nM); for Free Fatty Acid Levels, MEAN % ISO, −Insulin: peptide 10 μM alone, percent of isoproterenol (0.1 nM) treated control cells
Experimental: The effect of the peptides on fatty acid metabolism was assessed in the absence and presence of insulin using an assay of free fatty acid levels in cultured cells such as mouse adipocytes. Peptides were initially prepared as 10 mM stock in DMSO and used at a final concentration of 10 μM (0.1% DMSO). […] Insulin (0.25 nM) was used as a partial inhibitor and insulin (10 nM) was used as a potent inhibitor of isoproterenol stimulated fatty acid production. Mouse 3T3-L1 cells purchased from ZenBio (Research Triangle Park, N.C.) were seeded at 3,000 cells per well on 96-well plates in Pre-Adipocyte Medium (Zen-Bio) and grown to confluence at 37° C. in a humidified atmosphere of 5% CO2/95% air. Two days after confluence, cells were placed in Adipocyte Differentiation Medium (Zen-Bio) and cultured for three additional days at 37° C. in a humidified atmosphere of 5% CO2/95% air. The culture medium was then partially replaced with Adipocyte Maintenance Medium (Zen-Bio) and the cells maintained at 37° C. in a humidified atmosphere of 5% CO2/95% air with partial medium replacement every other day. At 12 day of differentiation, 96-well cultures were transferred to Adipocyte Maintenance Medium without insulin and placed at 37° C. in a humidified atmosphere of 5% CO2/95% air for two days. Following this incubation period, the medium was removed from 14 day differentiated cultures and replaced with Assay Buffer (Zen-Bio) containing peptides (10 μM), insulin (0.25 nM or 10 nM), isoproterenol (0.1 nM) as appropriate. […] isoproterenol was added to all wells except untreated controls. Insulin at 0.1 nM and 10 nM was added to control wells. Peptides (10 μM) in the absence or presence of insulin (0.25 nM) were added to test wells. Cells in the presence of compounds were placed at 37° C. in a humidified atmosphere of 5% CO2/95% air for 3 hours. At the end of the final 3 h incubation, conditioned assay buffer was removed from each well and place in a fresh 96-well plate for quantitation of free fatty acid content. Free fatty acid concentrations in the assay buffer samples were determined using a Free Fatty Acid Assay kit (Zen-Bio) according to the manufacturer's instructions using a Cytation 3 plate reader at 540 nm (BioTek, Winooski, VD. Absorbance values were corrected for untreated background and expressed as a percent of isoproterenol (0.1 nM) treated control cells for peptides alone or isoproterenol (0.1 nM)+insulin (0.25 nM) for peptides in presence of insulin (0.25 nM). Treatment with isoproterenol […] alone was used as the free fatty acid level stimulatory control. The relative standard deviation of the isoproterenol control was <10%. […] Free fatty acid levels for insulin (10 nM) treatment were <5% of the isoproterenol control value. Free fatty acid levels for insulin (0.25 nM) treatment were 60-80% of the isoproterenol control value.

3T3-L1 Mouse Adipocytes [2] = test: Free fatty acid levels in cultured mouse adipocytes; type: cell-based; details: peptide 10 μM, 1 nM isoproterenol, relative to isoproterenol treated cells
Experimental: The effect of the peptides on fatty acid metabolism can be assessed using an assay of free fatty acid levels in cultured cells such as mouse adipocytes. Peptides were initially prepared as 10 mM stock in DMSO and used at a final concentration of 10 μM (0.1% DMSO). […] Mouse 3T3-L1 cells purchased from ZenBio were seeded at 3,000 cells per well in 96-well plates in Pre-adipocyte Medium (Zen-Bio) and grown to confluence at 37° C. in a humidified atmosphere of 5% CO2/95% air. Two days after confluence, cells were placed in Adipocyte Differentiation Medium (Zen-Bio) and cultured for three additional days at 37° C. in a humidified atmosphere of 5% CO2/95% air. The culture media was then replaced with Adipocyte Maintenance Medium (Zen-Bio) and the cells maintained for an additional 9-12 days at 37° C. in a humidified atmosphere of 5% CO2/95% air with partial medium replacement every other day. Following 12-15 days of differentiation, test peptides were added at a final concentration of 10 μM in 0.1% DMSO and incubated for 20-22 hours in Adipocyte Maintenance Medium at 37° C. in a humidified atmosphere of 5% CO2/95% air. After 20-22 hours, 1 nM isoproterenol was added to all wells except untreated controls and test peptides were replenished. Insulin at 100 nM was added to control wells. Cells were incubated for 3 hours in Assay Buffer (Zen-Bio) at 37° C. in a humidified atmosphere of 5% CO2/95% air. Free fatty acid concentrations in the media were determined using a Free Fatty Acid Assay kit (Zen-Bio) according to the manufacturer's instructions using a Cytation 3 plate reader at 540 nm (BioTek, Winooski, Vt.). Absorbance values were corrected for untreated background and expressed relative to isoproterenol treated cells. Treatment with isoproterenol (1 nM) alone was used as the free fatty acid level stimulatory control. The relative standard deviation of the isoproterenol control was <10%. […] Free fatty acid levels for insulin (100 nM) treatment were <5% of the isoproterenol control value.
The effect of the peptides on fatty acid metabolism was assessed using an assay of free fatty acid levels in cultured cells such as mouse adipocytes. Peptides were initially prepared as 10 mM stock in DMSO and used at a final concentration of 10 μM (0.1% DMSO). […] Mouse 3T3-L1 cells purchased from ZenBio were seeded at 3,000 cells per well in 96-well plates in Pre-adipocyte Medium (Zen-Bio) and grown to confluence at 37° C. in a humidified atmosphere of 5% CO2/95% air. Two days after confluence, cells were placed in Adipocyte Differentiation Medium (Zen-Bio) and cultured for three additional days at 37° C. in a humidified atmosphere of 5% CO2/95% air. The culture media was then replaced with Adipocyte Maintenance Medium (Zen-Bio) and the cells maintained for an additional 9-12 days at 37° C. in a humidified atmosphere of 5% CO2/95% air with partial medium replacement every other day. Following 12-15 days of differentiation, test peptides were added at a final concentration of 10 μM in 0.1% DMSO and incubated for 20-22 hours in Adipocyte Maintenance Medium at 37° C. in a humidified atmosphere of 5% CO2/95% air. After 20-22 hours, 1 nM isoproterenol was added to all wells except untreated controls and test peptides were replenished. Insulin at 100 nM was added to control wells. Cells were incubated for 3 hours in Assay Buffer (Zen-Bio) at 37° C. in a humidified atmosphere of 5% CO2/95% air. Free fatty acid concentrations in the media were determined using a Free Fatty Acid Assay kit (Zen-Bio) according to the manufacturer's instructions using a Cytation 3 plate reader at 540 nm (BioTek, Winooski, Vt.). Absorbance values were corrected for untreated background and expressed relative to isoproterenol treated cells. Treatment with isoproterenol (1 nM) alone was used as the free fatty acid level stimulatory control. The relative standard deviation of the isoproterenol control was <10%. […]

Row | Substance | Free Fatty Acid Levels, MEAN % ISO, +Insulin (3T3-L1 Mouse Adipocytes [1]) [%] | Free Fatty Acid Levels, MEAN % ISO, −Insulin (3T3-L1 Mouse Adipocytes [1]) [%] | Free Fatty Acid Levels, MEAN % ISO (3T3-L1 Mouse Adipocytes [2]; Table 6) [%] | Free Fatty Acid Levels, MEAN % ISO (3T3-L1 Mouse Adipocytes [2]; Table 12) [%] | Free Fatty Acid Levels, MEAN % ISO, +Insulin (3T3-L1 Mouse Adipocytes [1]; listed as 5) [%] | Free Fatty Acid Levels, MEAN % ISO, −Insulin (3T3-L1 Mouse Adipocytes [1]; listed as 5) [%]
1 | MRVIRMCLGVGLLGDLAG [SEQ ID NO: 2] | 60.5 | 98.8 | 26.4 | 26 |  | 
2 | R(dA)IR(Nle)SLNVGLLGEL(dA) (R[dA]IR[Nle]SLNVGLLGEL[dA]) [SEQ ID NO: 15] | 112.6 | 97.6 |  | 101 |  | 
3 | RVIR(Nle)CLNVGLLGEL(dA)G (RVIR[Nle]CLNVGLLGEL[dA]G) [SEQ ID NO: 6] | 66.9 | 93.6 |  | 78 |  | 
4 | RVIR(Nle)SLNVGLEGEL(dA) (RVIR[Nle]SLNVGLEGEL[dA]) [SEQ ID NO: 14] | 71.9 | 89.9 |  | 64 |  | 
5 | RVIR(Nle)SLNVGLLGEL(dA)G (RVIR[Nle]SLNVGLLGEL[dA]G) [SEQ ID NO: 8] | 74.9 | 69.3 |  | 64 |  | 
6 | RVIRMCLGVGLLGDL(dA)G (RVIRMCLGVGLLGDL[dA]G) [SEQ ID NO: 4] | 36.6 | 92.9 | 20.1 | 20 |  | 
7 | RVIRMCLGVGLLGDLAG (disulfide I:6-II:6) [SEQ ID NO: 26] | 33.4 | 93.5 |  | 39 |  | 
8 | RVIRMCLGVGLLGDLAG [SEQ ID NO: 3] | 37.1 | 98.0 | 19.7 | 20 |  | 
9 | RVIRMCLGVGLLGDLAGK{PEG12} (RVIRMCLGVGLLGDLAGK(PEG12′)) [SEQ ID NO: 17] | 35.9 | 102 |  | 31 |  | 
10 | RVIRMCLGVGLLGDLAGK{PEG12} (chain 1 RVIRMCLGVGLLGDLAGK(PEG12′); chain 2 RVIRMCLGVGLLGDLAGK(PEG12′); disulfide I:6-II:6) [SEQ ID NO: 28] | 33.4 | 80.7 |  |  |  | 
11 | RVIRMCLNNGLLGEL(dA)G (RVIRMCLNNGLLGEL[dA]G) [SEQ ID NO: 9] | 41.0 | 95.2 |  | 30 |  | 
12 | RVIRMCLNNGLNGEL(dA)E (RVIRMCLNNGLNGEL[dA]E) [SEQ ID NO: 23] | 43.9 | 99.4 |  | 61 |  | 
13 | RVIRMCLNVGLLGEL(dA)E (RVIRMCLNVGLLGEL[dA]E) [SEQ ID NO: 12] | 41.2 | 92.8 |  | 22 |  | 
14 | RVIRMCLNVGLLGEL(dA)G [SEQ ID NO: 5] (RVIRMCLNVGLLGEL[dA]G) |  |  | 18.3 | 18 | 37.0 | 94.3
15 | RVIRMCLNVGLNGEL(dA)G (RVIRMCLNVGLNGEL[dA]G) [SEQ ID NO: 11] | 44.0 | 65.5 |  | 36 |  | 
16 | RVIRMCLNVGNLGEL(dA)G (RVIRMCLNVGNLGEL[dA]G) [SEQ ID NO: 10] | 63.2 | 90.7 |  | 29 |  | 
17 | RVIRMSLNVGLEGEL(dA) (RVIRMSLNVGLEGEL[dA]) [SEQ ID NO: 13] | 78.4 | 89.5 |  | 71 |  | 
18 | RVIRMSLNVGLLGEL(dA)G (RVIRMSLNVGLLGEL[dA]G) [SEQ ID NO: 7] | 74.5 | 91.1 |  | 77 |  | 
